The values that follow come from ChEMBL document CHEMBL1156312, “Comparison of the antiplasmodial and falcipain-2 inhibitory activity of beta-amino alcohol thiolactone-chalcone and isatin-chalcone hybrids” (Bioorg Med Chem Lett, 2010).

One test concerns Plasmodium falciparum. Nature of the test: Antimicrobial activity against chloroquine-resistant Plasmodium falciparum W2. The test is classed as functional, organism-based.
Test [1] can be described thus: Inhibition of recombinant Plasmodium falciparum falcipain-2.

As usually defined, the IC50 is the point on the concentration scale where inhibition reaches its midpoint. Take `COc1ccc(/C=C/C(=O)c2ccc(OCc3cn(CC(O)COC4=C(C)C(=O)SC4C)nn3)cc2)c(OC)c1OC` (stereo not given): the half-inhibitory concentration (IC50) in the test with Plasmodium falciparum was above 100 µM; in test [1] it was 0.81 µM.

With `COc1ccc(C(=O)/C=C/c2ccccc2OCc2cn(CC(O)CN3C(=O)C(=O)c4cc(Cl)ccc43)nn2)cc1` (stereo not given), the IC50 in the test on Plasmodium falciparum is 25.4 µM; in test [1], above 20 µM.

For `COc1ccc(C(=O)/C=C/c2ccccc2OCc2cn(CC(O)CN3C(=O)C(=O)c4cc(Cl)ccc43)nn2)c(OC)c1` (stereo not given), the IC50 in the test with Plasmodium falciparum is 15.6 µM; in test [1] it was above 20 µM.

Take `COc1ccc(C(=O)/C=C/c2ccccc2OCc2cn(CC(O)CN3C(=O)C(=O)c4cc(Cl)ccc43)nn2)c(OC)c1OC` (stereo not given): the IC50 turned out to be 90.5 µM with Plasmodium falciparum and 6.1 µM in test [1].

Consider `COc1ccc(C(=O)/C=C/c2cccc(OCc3cn(CC(O)CN4C(=O)C(=O)c5cc(Cl)ccc54)nn3)c2)cc1` (stereo not given), for which the IC50 was found to be 10.3 µM in the test with Plasmodium falciparum and 5.75 µM in test [1].

For the compound `COc1ccc(C(=O)/C=C/c2cccc(OCc3cn(CC(O)CN4C(=O)C(=O)c5cc(Cl)ccc54)nn3)c2)c(OC)c1` (stereo not given), the IC50 in the test with Plasmodium falciparum came to 6.8 µM; in test [1], 3.17 µM.

`COc1ccc(C(=O)/C=C/c2cccc(OCc3cn(CC(O)CN4C(=O)C(=O)c5cc(Cl)ccc54)nn3)c2)c(OC)c1OC` (stereo not given): the IC50 came to 11.5 µM in the test with Plasmodium falciparum and 2.18 µM in test [1].

Take `COc1ccc(C(=O)/C=C/c2ccc(OCc3cn(CC(O)CN4C(=O)C(=O)c5cc(Cl)ccc54)nn3)cc2)cc1` (stereo not given): the IC50 was 10.8 µM with Plasmodium falciparum and 10.6 µM in test [1].

For the compound `COc1ccc(C(=O)/C=C/c2ccc(OCc3cn(CC(O)CN4C(=O)C(=O)c5cc(Cl)ccc54)nn3)cc2)c(OC)c1` (stereo not given), the half-maximal inhibitory concentration (IC50) in test [1] turned out to be 9.73 µM.

Regarding `COc1ccc(C(=O)/C=C/c2ccc(OCc3cn(CC(O)CN4C(=O)C(=O)c5cc(Cl)ccc54)nn3)cc2)c(OC)c1OC` (stereo not given), the IC50 with Plasmodium falciparum was found to be 16.6 µM; in test [1] it was 11 µM.

Turning to `COc1ccc(/C=C/C(=O)c2ccccc2OCc2cn(CC(O)CN3C(=O)C(=O)c4cc(Cl)ccc43)nn2)cc1` (stereo not given), the IC50 in the test with Plasmodium falciparum was 16 µM; in test [1], 7.79 µM.

`COc1ccc(/C=C/C(=O)c2ccccc2OCc2cn(CC(O)CN3C(=O)C(=O)c4cc(Cl)ccc43)nn2)c(OC)c1` (stereo not given): the IC50 worked out at 15 µM in the test on Plasmodium falciparum and 2.09 µM in test [1].

On to `COc1ccc(/C=C/C(=O)c2ccccc2OCc2cn(CC(O)CN3C(=O)C(=O)c4cc(Cl)ccc43)nn2)c(OC)c1OC` (stereo not given), for which the figures for the IC50 (in the test on Plasmodium falciparum; in test [1]) were 15.3 µM and 6.21 µM, respectively.

Regarding `COc1ccc(/C=C/C(=O)c2cccc(OCc3cn(CC(O)CN4C(=O)C(=O)c5cc(Cl)ccc54)nn3)c2)cc1` (stereo not given), the IC50 in the test with Plasmodium falciparum was found to be 9.91 µM; in test [1], 3.57 µM.

As for `COc1ccc(/C=C/C(=O)c2cccc(OCc3cn(CC(O)CN4C(=O)C(=O)c5cc(Cl)ccc54)nn3)c2)c(OC)c1` (stereo not given), the IC50 with Plasmodium falciparum stood at 10.6 µM; in test [1], 2.95 µM.

Turning to `COc1ccc(/C=C/C(=O)c2cccc(OCc3cn(CC(O)CN4C(=O)C(=O)c5cc(Cl)ccc54)nn3)c2)c(OC)c1OC` (stereo not given), the IC50 with Plasmodium falciparum was 16.7 µM; in test [1], 2.57 µM.

Regarding `COc1ccc(/C=C/C(=O)c2ccc(OCc3cn(CC(O)CN4C(=O)C(=O)c5cc(Cl)ccc54)nn3)cc2)cc1` (stereo not given), the IC50 worked out at 15.9 µM with Plasmodium falciparum and 14.9 µM in test [1].

In the case of `COc1ccc(/C=C/C(=O)c2ccc(OCc3cn(CC(O)CN4C(=O)C(=O)c5cc(Cl)ccc54)nn3)cc2)c(OC)c1` (stereo not given), the IC50 in the test with Plasmodium falciparum was determined as 18.3 µM; in test [1], 14.5 µM.

As to `COc1ccc(/C=C/C(=O)c2ccc(OCc3cn(CC(O)CN4C(=O)C(=O)c5cc(Cl)ccc54)nn3)cc2)c(OC)c1OC` (stereo not given), the figures for the IC50 (in the test on Plasmodium falciparum; in test [1]) were 25.1 µM and above 20 µM, respectively.

In the case of `COc1ccc(/C=C/C(=O)c2ccccc2OCc2cn(CC(O)COC3=C(C)C(=O)SC3C)nn2)cc1` (stereo not given), the IC50 is above 100 µM in the test with Plasmodium falciparum and 2.64 µM in test [1].

With `COc1ccc(C(=O)/C=C/c2ccccc2OCc2cn(CC(O)COC3=C(C)C(=O)SC3C)nn2)cc1` (stereo not given), the IC50 in the test with Plasmodium falciparum is above 100 µM; in test [1], 2.31 µM.

`COc1ccc(C(=O)/C=C/c2cccc(OCc3cn(CC(O)COC4=C(C)C(=O)SC4C)nn3)c2)cc1` (stereo not given): the results for the IC50 (with Plasmodium falciparum; in test [1]) were above 100 µM and 2.43 µM, respectively.

As to `COc1ccc(C(=O)/C=C/c2cccc(OCc3cn(CC(O)COC4=C(C)C(=O)SC4C)nn3)c2)c(OC)c1` (stereo not given), the results for the IC50 (in the test with Plasmodium falciparum; in test [1]) were above 100 µM and 1.64 µM, respectively.

For the compound `COc1ccc(C(=O)/C=C/c2ccc(OCc3cn(CC(O)COC4=C(C)C(=O)SC4C)nn3)cc2)cc1` (stereo not given), the IC50 in the test on Plasmodium falciparum was above 100 µM; in test [1] it was 3.12 µM.

Turning to `COc1ccc(C(=O)/C=C/c2ccccc2OCc2cn(CC(O)COC3=C(C)C(=O)SC3C)nn2)c(OC)c1` (stereo not given), the concentration for half-maximal inhibition (IC50) in the test with Plasmodium falciparum was above 100 µM; in test [1], 2.08 µM.

With `COc1ccc(C(=O)/C=C/c2ccc(OCc3cn(CC(O)COC4=C(C)C(=O)SC4C)nn3)cc2)c(OC)c1` (stereo not given), the results for the IC50 (in the test with Plasmodium falciparum; in test [1]) were above 100 µM and 1.54 µM, respectively.

Consider `COc1ccc(C(=O)/C=C/c2ccccc2OCc2cn(CC(O)COC3=C(C)C(=O)SC3C)nn2)c(OC)c1OC` (stereo not given), for which the IC50 in the test with Plasmodium falciparum is above 100 µM; in test [1], 1.14 µM.

As to `COc1ccc(C(=O)/C=C/c2cccc(OCc3cn(CC(O)COC4=C(C)C(=O)SC4C)nn3)c2)c(OC)c1OC` (stereo not given), the IC50 in the test on Plasmodium falciparum was above 100 µM; in test [1] it was 2 µM.

Take `CC1=C(OCC(O)CN=[N+]=[N-])C(C)SC1=O` (stereo not given): the results for the IC50 (in the test with Plasmodium falciparum; in test [1]) were above 100 µM and above 20 µM, respectively.

With `COC1(OC)C(=O)N(CC(O)CN=[N+]=[N-])c2ccc(Cl)cc21` (stereo not given), the IC50 is above 100 µM in the test on Plasmodium falciparum and above 20 µM in test [1].

In the case of `COc1ccc(/C=C/C(=O)c2ccccc2OCc2cn(CC(O)COC3=C(C)C(=O)SC3C)nn2)c(OC)c1` (stereo not given), the IC50 was above 100 µM in the test on Plasmodium falciparum and 2.14 µM in test [1].

As for `COc1ccc(/C=C/C(=O)c2cccc(OCc3cn(CC(O)COC4=C(C)C(=O)SC4C)nn3)c2)cc1` (stereo not given), the IC50 in the test with Plasmodium falciparum was above 100 µM; in test [1], 3.69 µM.

Turning to `COc1ccc(/C=C/C(=O)c2cccc(OCc3cn(CC(O)COC4=C(C)C(=O)SC4C)nn3)c2)c(OC)c1` (stereo not given), the IC50 in the test with Plasmodium falciparum was above 100 µM; in test [1], 3.51 µM.

`COc1ccc(/C=C/C(=O)c2ccc(OCc3cn(CC(O)COC4=C(C)C(=O)SC4C)nn3)cc2)cc1` (stereo not given): the IC50 with Plasmodium falciparum was above 100 µM; in test [1], 6.08 µM.

`COc1ccc(C(=O)/C=C/c2ccc(OCc3cn(CC(O)COC4=C(C)C(=O)SC4C)nn3)cc2)c(OC)c1OC` (stereo not given): the 50% inhibitory concentration (IC50) with Plasmodium falciparum is above 100 µM; in test [1], 5.04 µM.

As for `COc1ccc(/C=C/C(=O)c2ccc(OCc3cn(CC(O)COC4=C(C)C(=O)SC4C)nn3)cc2)c(OC)c1` (stereo not given), the IC50 with Plasmodium falciparum turned out to be 28.5 µM; in test [1] it was 3.1 µM.

`COc1ccc(/C=C/C(=O)c2cccc(OCc3cn(CC(O)COC4=C(C)C(=O)SC4C)nn3)c2)c(OC)c1OC` (stereo not given): the results for the IC50 (in the test with Plasmodium falciparum; in test [1]) were above 100 µM and 0.68 µM, respectively.

As to `CCN(CC)CCCC(C)Nc1ccnc2cc(Cl)ccc12` (stereo not given) [CHLOROQUINE], the IC50 in test [1] is 0.0694 µM.

With `O=C1Nc2ccccc2C1=O` [ISATIN], the IC50 in the test with Plasmodium falciparum is above 100 µM; in test [1], above 20 µM.

`C=C/C(C)=C/[C@@]1(C)SC(=O)C(C)=C1O` [THIOLACTOMYCIN]: the IC50 in the test on Plasmodium falciparum was above 100 µM; in test [1], above 20 µM.

Regarding `CC1=C(O)SC(C)C1=O` (stereo not given) [THIOLACTONE], the figures for the half-inhibitory concentration (IC50) (in the test on Plasmodium falciparum; in test [1]) were above 100 µM and above 20 µM, respectively.
